# Reference: patent US20230129721A1, “STABILIZER FOR RADIOPHARMACEUTICALS AND RADIOPHARMACEUTICAL COMPOSITION COMPRISING THE SAME” (THE ASAN FOUNDATION, priority 2020, published 2023)
# Assay: Stability (labeling / radiochemical purity by HPLC) of ^99mTc-labeled radiopharmaceutical-containing preparation under acidic, neutral and basic conditions
# Assay type: physicochemical
# Method: 2 mL of Tc-99m was added dropwise to a lyophilization vial containing 0.1 mg of GP-104, 15 μg of SnCl2, and 20 μg (165 nmol) of cysteine, and left at room temperature for 10 minutes, and the reaction was terminated by adjusting the pH of the mixture to pH 7 using a NaOH solution. The labeling purity was determined using HPLC (analysis conditions: Luna C18 250×4.6 mm, phosphate buffer:acetonitrile (100:0, 0-5 minutes; 80:20, 5-10 minutes; 80:20, 17 minutes; 100:0, 17.1 minutes; 100:0. 20 minutes), 1.0 mL/min, UV=280 nm).
# HCl and NaOH were further added dropwise to the solution of Example 7 to adjust the final pH of the solution, followed by stability evaluation under the acidic (pH 5.5) and basic (pH 8.5) conditions. Then, the labeling purity was determined in the same manner as in Example 7 using HPLC.
# (§1) 2 mL of Tc-99m was added dropwise to a lyophilization vial containing 0.1 mg of radiopharmaceutical GP-104, 15 μg of SnCl2, 10 μg (82.5 nmol) of cysteine, and 22 μg (82.5 nmol) of VB1, and left at room temperature for 10 minutes, and the reaction was terminated by adjusting the pH of the mixture to pH 7 using a NaOH solution. Then, the labeling purity was determined in the same manner as in Example 7 using HPLC.
# HCl and NaOH were further added dropwise to the solution of Example 9 to adjust the final pH of the solution, followed by stability evaluation under the acidic (pH 5.5) and basic (pH 8.5) conditions. Then, the labeling purity was determined in the same manner as in Example 7 using HPLC.
# as §1, with “of” for “of radiopharmaceutical”, “17” for “22”, “VB6,” for “VB1,”
# HCl and NaOH were further added dropwise to the solution of Example 11 to adjust the final pH of the solution, followed by stability evaluation under the acidic (pH 5.5) and basic (pH 8.5) conditions. Then, the labeling purity was determined in the same manner as in Example 7 using HPLC.
# as §1, with “of GP-105,” for “of radiopharmaceutical GP-104,”, “SnCl2, and 20” for “SnCl2, 10”, “μg (165” for “μg (82.5”, “cysteine,” for “cysteine, and 22 μg (82.5 nmol) of VB1,”
# HCl and NaOH were further added dropwise to the solution of Example 13 to adjust the final pH of the solution, followed by stability evaluation under the acidic (pH 5.5) and basic (pH 8.5) conditions. Then, the labeling purity was determined in the same manner as in Example 7 using HPLC.
# as §1, with “GP-105,” for “radiopharmaceutical GP-104,”
# HCl and NaOH were further added dropwise to the solution of Example 15 to adjust the final pH of the solution, followed by stability evaluation under the acidic (pH 5.5) and basic (pH 8.5) conditions. Then, the labeling purity was determined in the same manner as in Example 7 using HPLC.
# as §1, with “GP-105,” for “radiopharmaceutical GP-104,”, “17” for “22”, “VB6,” for “VB1,”, “HPLC. […]” for “HPLC.”
# [1] = 10 μg (82.5 nmol) cysteine and 17 μg (82.5 nmol) VB6, pH 5.5, 0 hr
# [2] = 10 μg (82.5 nmol) cysteine and 17 μg (82.5 nmol) VB6, pH 5.5, 2 hr
# [3] = 10 μg (82.5 nmol) cysteine and 17 μg (82.5 nmol) VB6, pH 5.5, 4 hr
# [4] = 10 μg (82.5 nmol) cysteine and 17 μg (82.5 nmol) VB6, pH 7, 0 hr
# [5] = 10 μg (82.5 nmol) cysteine and 17 μg (82.5 nmol) VB6, pH 7, 2 hr
# [6] = 10 μg (82.5 nmol) cysteine and 17 μg (82.5 nmol) VB6, pH 7, 4 hr
# [7] = 10 μg (82.5 nmol) cysteine and 17 μg (82.5 nmol) VB6, pH 8.5, 0 hr
# [8] = 10 μg (82.5 nmol) cysteine and 17 μg (82.5 nmol) VB6, pH 8.5, 2 hr
# [9] = 10 μg (82.5 nmol) cysteine and 17 μg (82.5 nmol) VB6, pH 8.5, 4 hr
# [10] = 10 μg (82.5 nmol) cysteine and 22 μg (82.5 nmol) VB1, pH 5.5, 0 hr
# [11] = 10 μg (82.5 nmol) cysteine and 22 μg (82.5 nmol) VB1, pH 5.5, 2 hr
# [12] = 10 μg (82.5 nmol) cysteine and 22 μg (82.5 nmol) VB1, pH 5.5, 4 hr
# [13] = 10 μg (82.5 nmol) cysteine and 22 μg (82.5 nmol) VB1, pH 7, 0 hr
# [14] = 10 μg (82.5 nmol) cysteine and 22 μg (82.5 nmol) VB1, pH 7, 2 hr
# [15] = 10 μg (82.5 nmol) cysteine and 22 μg (82.5 nmol) VB1, pH 7, 4 hr
# [16] = 10 μg (82.5 nmol) cysteine and 22 μg (82.5 nmol) VB1, pH 8.5, 0 hr
# [17] = 10 μg (82.5 nmol) cysteine and 22 μg (82.5 nmol) VB1, pH 8.5, 2 hr
# [18] = 10 μg (82.5 nmol) cysteine and 22 μg (82.5 nmol) VB1, pH 8.5, 4 hr
# [19] = 20 μg (165 nmol) cysteine, pH 5.5, 0 hr
# [20] = 20 μg (165 nmol) cysteine, pH 5.5, 2 hr
# [21] = 20 μg (165 nmol) cysteine, pH 5.5, 4 hr
# [22] = 20 μg (165 nmol) cysteine, pH 7, 0 hr
# [23] = 20 μg (165 nmol) cysteine, pH 7, 2 hr
# [24] = 20 μg (165 nmol) cysteine, pH 7, 4 hr
# [25] = 20 μg (165 nmol) cysteine, pH 8.5, 0 hr
# [26] = 20 μg (165 nmol) cysteine, pH 8.5, 2 hr
# [27] = 20 μg (165 nmol) cysteine, pH 8.5, 4 hr
Structure (SMILES),radiochemical purity (labeling purity) [1],radiochemical purity (labeling purity) [2],radiochemical purity (labeling purity) [3],radiochemical purity (labeling purity) [4],radiochemical purity (labeling purity) [5],radiochemical purity (labeling purity) [6],radiochemical purity (labeling purity) [7],radiochemical purity (labeling purity) [8],radiochemical purity (labeling purity) [9],radiochemical purity (labeling purity) [10],radiochemical purity (labeling purity) [11],radiochemical purity (labeling purity) [12],radiochemical purity (labeling purity) [13],radiochemical purity (labeling purity) [14],radiochemical purity (labeling purity) [15],radiochemical purity (labeling purity) [16],radiochemical purity (labeling purity) [17],radiochemical purity (labeling purity) [18],radiochemical purity (labeling purity) [19],radiochemical purity (labeling purity) [20],also measured
"O=C(O)C[C@H](NC(=O)[C@@H]1CCCN(C(=O)CCC2CCNCC2)C1)c1cncc(OCCNC(=O)CN(CC(=O)O)CC(=O)O)c1 (99mTc complex, metal not drawn) [GP-105, 2,2′-((2-((2-((5-((S)-2-carboxy-1-((R)-1-(3-(piperidin-4-yl)propanoyl)piperidine-3-carboxamido)ethyl)pyridin-3-yl)oxy)ethyl)amino)-2-oxoethyl)azanediyl)diacetic acid]",100%,97.24%,95.61%,100%,98.56%,98.2%,100%,92.21%,89.62%,100%,100%,98.63%,100%,100%,94.88%,100%,94.13%,90.17%,100%,85.49%,radiochemical purity (labeling purity) [21]: 82.11%; radiochemical purity (labeling purity) [22]: 100%; radiochemical purity (labeling purity) [23]: 94.88%; radiochemical purity (labeling purity) [24]: 85.55%; radiochemical purity (labeling purity) [25]: 100%; radiochemical purity (labeling purity) [26]: 50.64%; radiochemical purity (labeling purity) [27]: 23.98%
"O=C(O)C[C@H](NC(=O)[C@@H]1CCCN(C(=O)CCC2CCNCC2)C1)c1cncc(OCCNC(=O)CN(CCN(CCN(CC(=O)O)CC(=O)O)CC(=O)O)CC(=O)O)c1 [GP-104, (S)-3-(5-(2-(2-DTPA acetamido)ethoxy)pyridin-3-yl)-3-((R)-1-(3-(piperidin-4-yl)propanoyl)piperidine-3-carboxamido)propanoic acid]",97.24%,90.29%,90.65%,97.24%,95.61%,96.25%,97.24%,95.61%,91.19%,100%,92.72%,91.20%,100%,98.63%,98.18%,100%,83.08%,80.97%,95.26%,91.45%,radiochemical purity (labeling purity) [21]: 89.28%; radiochemical purity (labeling purity) [22]: 95.26%; radiochemical purity (labeling purity) [23]: 91.19%; radiochemical purity (labeling purity) [24]: 91.61%; radiochemical purity (labeling purity) [25]: 95.26%; radiochemical purity (labeling purity) [26]: 79.83%; radiochemical purity (labeling purity) [27]: 51.77%
